Test results reported in PMC5428058, “Local delivery of novel MRTF/SRF inhibitors prevents scar tissue formation in a preclinical model of fibrosis” (Scientific Reports, 2017).

Experiments:
[1] = test system: New Zealand white rabbits; experiment: rabbit glaucoma filtration surgery model of scar tissue formation, clinical end-points; assay type: in vivo
Source text: 24 female New Zealand white rabbits (2–2.4 kg, 12—14 weeks, Highgate, UK) underwent experimental glaucoma filtration surgery to the left eye under general anaesthesia, [28]. A superonasal fornix-based conjunctival flap was raised behind the limbus and a micro-vitreoretinal blade (20 gauge, 0.90 mm, Surgistar USA) was used to make a partial thickness scleral tunnel to the corneal stroma. A 22 gauge, 25 mm intravenous cannula was passed through the tunnel and the needle was removed once it was visible in the cornea. The cannula was advanced into the mid-pupillary area, trimmed at its scleral edge and fixed to the scleral surface using a 10–0 nylon suture (Alcon, USA). The conjunctival incision was closed using two interrupted 10–0 nylon sutures. In a randomised, prospective, single-masked observer study, the rabbits received either intraoperative 0.2 mg/ml mitomycin-C (MMC) [N = 6], or postoperative subconjunctival injections (100 μl) of 100 μM CCG-203971 [N = 6] or 100 μM CCG-222740 [N = 6] or vehicle control [N = 6] daily for the first nine days followed by twice weekly for three weeks, [33]. CCG-222740 and CCG-203971 were dissolved in 100% DMSO (Sigma, UK) at 10 mM and then diluted to 100 μM with sterile PBS. The same volume of DMSO was diluted with PBS for the vehicle control. For the MMC-treated group, a small corneal light shield sponge was soaked in 1 ml of 0.2 mg/ml MMC and applied over the conjunctiva for 3 minutes, and the area was then thoroughly washed with 50 ml of physiologic balanced salt solution (Alcon Laboratories, Inc., Fort Worth, TX). All the postoperative subconjunctival injections were given at the same site by a single-masked researcher.
(§1) The animals were evaluated twice weekly by a single-masked researcher. Bleb width and length were measured using calipers and intraocular pressures (IOP) were measured using a tonovet (Icare). The primary efficacy end-point was bleb survival as this is indicative of the long-term opening of the filtration pathway created during surgery. Bleb failure was defined as the appearance of a flat, scarred, and vascularised bleb associated with a deep anterior chamber. IOP survival, defined as when the intraocular pressure remains below the baseline IOP measurement, and bleb area were used as secondary end-points. Conjunctival vascularity was graded on a scale of 0 to 3 (0: avascular, 1: normal, 2: hyperaemic, 3: very hyperaemic).

[2] = test system: New Zealand white rabbits; experiment: local and systemic toxicity after glaucoma filtration surgery; assay type: in vivo; details: rabbit
Method: as §1
For the Ki67 staining, the sections were dewaxed, rehydrated, and microwaved for 15 minutes in sodium citrate buffer (pH 6) for antigen retrieval. After incubating in 1.6% hydrogen peroxide followed by 10% normal horse serum, the sections were incubated in mouse anti-Ki67 (M7248, Dako) diluted 1 in 25 in 1% BSA/PBS for 1 hour at room temperature. The sections were then incubated in biotinylated horse anti-mouse IgG (Vector) and Avidin-Biotin complex (Vector), developed in DAB (Vector), and counterstained in haematoxylin.
All animals were carefully evaluated for any signs of ocular or systemic toxicity during the study. At day 30, 100 µl of aqueous, 1 ml of vitreous, and 1 ml of venous blood were sampled on the rabbit eyes receiving CCG-222740 or CCG-203971 or vehicle control. The venous blood samples were left to clot for 30 minutes at room temperature, spun at 4000 rpm for 15 minutes at 4 °C, and the serum was collected as the supernatant. Samples were extracted in acetonitrile and the levels of CCG-222740 and CCG-203971 were measured in the aqueous, vitreous, and serum using liquid chromatography/mass spectrometry (LC/MS) in the Metabolomics Core at Michigan State University (East Lansing, MI).

## CO[C@@]12[C@H](COC(N)=O)C3=C(C(=O)C(C)=C(N)C3=O)N1C[C@@H]1N[C@@H]12 [MMC, mitomycin-C, reference compound]
[1]
  bleb area compared to vehicle control: significantly larger
[1]; CCG compounds 100 μM subconjunctival, MMC 0.2 mg/ml intraoperative, vehicle 14 days
  mean day of bleb failure: 28.8 days
[1]; versus vehicle control or baseline
  intraocular pressure (IOP): significantly lower
[2]; day 30
  Ki67 positive cells in the conjunctival epithelium: markedly reduced the number of Ki67 positive cells
[2]; in vivo
  conjunctival vascularity: thin avascular blebs
  local toxicity, conjunctival epithelium: caused disruption of the epithelial cell layer
